Reference: US20100311643A1, “USE OF GLP-1 AS A THERAPEUTIC AGENT” (priority 2007, published 2010)

Test system: drug-resistant Mycobacterium tuberculosis
Settings: drug-resistant Mycobacterium tuberculosis growth; peptide 10 micrograms per ml; seven days

Question: `CC[C@H](C)[C@H](NC(=O)[C@H](Cc1ccccc1)NC(=O)[C@H](CCC(=O)O)NC(=O)[C@H](CCCCN)NC(=O)[C@H](C)NC(=O)[C@H](C)NC(=O)[C@H](CCC(N)=O)NC(=O)CNC(=O)[C@H](CCC(=O)O)NC(=O)[C@H](CC(C)C)NC(=O)[C@H](Cc1ccc(O)cc1)NC(=O)[C@H](CO)NC(=O)[C@H](CO)NC(=O)[C@@H](NC(=O)[C@H](CC(=O)O)NC(=O)[C@H](CO)NC(=O)[C@@H](NC(=O)[C@H](Cc1ccccc1)NC(=O)[C@@H](NC(=O)CNC(=O)[C@H](CCC(=O)O)NC(=O)[C@H](C)NC(=O)[C@H](Cc1c[nH]cn1)NC(=O)[C@H](CCCNC(=N)N)NC(=O)[C@H](CCC(=O)O)NC(=O)[C@H](Cc1ccccc1)NC(=O)[C@H](CCC(=O)O)NC(=O)[C@H](CC(=O)O)NC(=O)[C@@H](N)Cc1c[nH]cn1)[C@@H](C)O)[C@@H](C)O)C(C)C)C(=O)N[C@@H](C)C(=O)N[C@@H](Cc1c[nH]c2ccccc12)C(=O)N[C@@H](CC(C)C)C(=O)N[C@H](C(=O)N[C@@H](CCCCN)C(=O)NCC(=O)N[C@@H](CCCNC(=N)N)C(=O)NCC(=O)O)C(C)C` [GLP-1] was tested. Which “% inhibition” value did it give?
Answer: The value was 0.0%.
